Series [1] concerns the target Beta Secretase enzyme (BACE) (Homo sapiens, UniProt P56817). The experiment in a line: In vitro enzymatic BACE FRET (fluorescence resonance energy transfer) assay.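 Note: fluorescence read after 1 h with 50 nM quenched peptide substrate spanning the BACE cleavage site, in pH 4.2 acetate buffer containing 10% DMSO and nonionic detergent.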 The format is biochemical.
Series [2] concerns Aβ40 in conditioned medium of cells stably expressing Amyloid Precursor Protein (APP). The experiment in a line: In vitro BACE cell-based assay (Aβ40 in conditioned medium, sandwich ELISA).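 Note: compounds added as a dilution series, secreted peptide quantified by europium time-resolved fluorescence readout, potency fitted from percent of control versus compound concentration.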 For orientation: ELISA stands for enzyme-linked immunosorbent assay.
Series [3] in a line: Microsomal stability assay, rat liver microsomes.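 Note: rat liver microsomes (0.25 mg/mL) with about 1 µM compound plus 1 mM NADPH, pH 7.4, 37 °C for 30 min, parent left measured by LC-MS/MS against 0 min.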
Series [4] can be described thus: Microsomal stability assay, human liver microsomes.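 Note: pooled human liver microsomes at 0.25 mg/mL with 1 µM compound and NADPH at 37 °C, pH 7.4, for 30 min, unchanged parent quantified by LC-MS/MS against the 0 min sample.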
For a further series, the target named is CYP2D6 (Homo sapiens, UniProt P10635). The experiment in a line: CYP2D6 inhibition assay (bufuralol, pooled human liver microsomes). To be noted: 2D6 IC50, CYP enzyme inhibition. In general terms: Liver microsomes are a subcellular fraction often used to study metabolism.
Chain of CYP2D6 (P10635 whole entry): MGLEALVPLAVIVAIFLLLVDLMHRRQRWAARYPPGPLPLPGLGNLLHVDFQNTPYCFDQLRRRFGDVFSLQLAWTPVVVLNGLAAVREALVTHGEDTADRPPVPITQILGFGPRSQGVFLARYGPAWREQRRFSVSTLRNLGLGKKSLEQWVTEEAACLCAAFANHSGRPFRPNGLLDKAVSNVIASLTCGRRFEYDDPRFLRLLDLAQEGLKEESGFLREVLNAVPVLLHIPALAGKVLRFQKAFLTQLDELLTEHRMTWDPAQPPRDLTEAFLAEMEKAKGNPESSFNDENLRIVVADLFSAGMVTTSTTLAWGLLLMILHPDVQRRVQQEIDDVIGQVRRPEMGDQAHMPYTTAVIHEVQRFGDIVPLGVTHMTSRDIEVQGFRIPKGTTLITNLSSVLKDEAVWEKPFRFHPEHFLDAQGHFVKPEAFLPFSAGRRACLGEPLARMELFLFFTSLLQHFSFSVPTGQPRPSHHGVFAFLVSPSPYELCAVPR
The mark [5] stands for this setting: BACE enzyme assay, read-out: BACE1 FRET assay.
[6] abbreviates: read-out: BACE1 FRET assay (IC50).
Setting [7] is: Homo sapiens, HEK293, HEK cells, read-out: HEK cell assay (IC50).
The mark [8] stands for this setting: BACE enzyme assay IC50, read-out: BACE1 FRET assay.
[9] abbreviates: Homo sapiens, HEK293, HEK cell-based assay IC50, read-out: HEK cell assay.
Setting [10] is: BACE enzyme assay, IC50's in uM, read-out: BACE1 FRET assay.
[11] abbreviates: Homo sapiens, HEK293, HEK cell-based assay, IC50's in uM, read-out: HEK cell assay.
[12] abbreviates: Homo sapiens, HEK293, cell-based assay, HEK cells, IC50's in uM, read-out: HEK cell assay.
Where [13] appears, read: BACE enzyme FRET assay, read-out: BACE1 FRET assay (IC50).
The mark [14] stands for this setting: HEK cells, cell-based assay, read-out: HEK cell assay (IC50).
[15] abbreviates: BACE enzyme assay, read-out: BACE1 FRET assay (IC50).

The values below come from patent US8163909B2, “Substituted hydroxyethyl amine compounds as beta-secretase modulators and methods of use” (Amgen Inc., priority 2007, dated 2012).

Read-outs that look alike come from different tables or passages of the source.

Chain of Beta Secretase enzyme (BACE) (P56817 46-501): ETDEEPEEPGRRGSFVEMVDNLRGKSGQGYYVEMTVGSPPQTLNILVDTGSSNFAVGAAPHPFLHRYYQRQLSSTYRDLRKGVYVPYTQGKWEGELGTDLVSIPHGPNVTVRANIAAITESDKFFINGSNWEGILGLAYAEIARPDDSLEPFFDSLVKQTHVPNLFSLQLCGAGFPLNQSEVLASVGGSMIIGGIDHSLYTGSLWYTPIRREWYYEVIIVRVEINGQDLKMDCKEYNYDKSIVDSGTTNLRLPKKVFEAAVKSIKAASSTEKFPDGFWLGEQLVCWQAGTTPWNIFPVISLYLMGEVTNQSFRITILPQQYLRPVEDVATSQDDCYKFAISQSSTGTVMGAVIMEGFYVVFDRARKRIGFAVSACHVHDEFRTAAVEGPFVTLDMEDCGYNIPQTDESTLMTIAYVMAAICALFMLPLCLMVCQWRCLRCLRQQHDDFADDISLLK

As to `CO[C@@H](C)C(=O)N[C@@H](Cc1ccc2c(c1)OCO2)[C@H](O)CN[C@H]1CC2(CCC2)Oc2c1cc(CC(C)(C)C)nc2N(C)C` [compound 443], the IC50 in series [1] (Table 2, read-out: BACE1 FRET assay) came out at 0.065 µM; in series [2] (Homo sapiens, HEK293, Table 2, HEK cells, read-out: HEK cell assay) it was 0.175 µM. This compound also registered an RLM in series [3] (rat liver microsomal data) of 232 µL/min/mg. The HLM in series [4] (human liver microsomal data) turned out to be 190 µL/min/mg.

For `COCC(=O)N[C@@H](Cc1cccc(F)c1)[C@H](O)CN[C@H]1CC2(CCC2)Oc2c1cc(Cl)cc2-n1ccnc1` [compound 553], the IC50 in series [1] (setting [5]) was found to be 0.146 µM. Besides, the “RLM” value in series [3] (rat liver microsomal data) amounted to 86 µL/min/mg. Also, the “HLM” value in series [4] (human liver microsomal data) is 47 µL/min/mg.

Regarding `COCC(=O)N[C@@H](Cc1ccc2c(c1)OCO2)[C@H](O)CN[C@H]1CC2(CCC2)Oc2ccc(C[C@@H](C)F)cc21` [compound 558], the IC50 in series [1] (setting [5]) worked out at 0.25 µM; in series [2] (Homo sapiens, HEK293, HEK cells, read-out: HEK cell assay), 0.336 µM. Further, the “RLM” value in series [3] (rat liver microsomal data) is 362 µL/min/mg. Besides, the “HLM” value in series [4] (human liver microsomal data) was found to be 167 µL/min/mg.

As for `CO[C@H](C)C(=O)N[C@@H](Cc1ccc(F)cc1)[C@H](O)CN[C@H]1CC2(CCC2)Oc2c(-c3ccncc3)cc(CC(C)(C)F)cc21` [compound 577], the IC50 in series [1] (setting [6]) is 0.115 µM; in series [2] (setting [7]) it was 0.057 µM.

In the case of `COCC(=O)N[C@@H](Cc1cc(F)cc(F)c1)[C@H](O)CN[C@H]1CC2(CCC2)Oc2c(-c3ccncc3)cc(CC(C)(C)F)cc21` [compound 579], the figures for the IC50 in series [1] (setting [6]) and in series [2] (setting [7]) were 0.014 µM and 0.005 µM, respectively.

As for `COCC(=O)N[C@@H](Cc1cc(F)cc(F)c1)[C@H](O)CN[C@H]1CC2(CCC2)Oc2c1cc(Cl)cc2-n1ccnc1` [compound 581], the IC50 in series [1] (setting [6]) was 0.081 µM; in series [2] (setting [7]), 0.075 µM. The compound also displayed an RLM in series [3] (rat liver microsomes) of 124 µL/min/mg. In series [4] (human liver microsomes), this compound registered an HLM of 91 µL/min/mg.

Turning to `CC(C)Cc1cnc2c(c1)[C@@H](NC[C@@H](O)[C@H](Cc1ccc3c(c1)OCO3)NC(=O)[C@H](C)F)CC1(CCC1)O2` [compound 601], the IC50 in series [1] (setting [6]) is 0.044 µM; in series [2] (setting [7]), 0.062 µM.

Take `CCOCC(=O)N[C@@H](Cc1ccc(F)cc1)[C@H](O)CN[C@H]1CC2(CCC2)Oc2ncc(CC(C)(C)C)cc21` [compound 655]: the IC50 in series [1] (setting [6]) amounted to 0.013 µM; in series [2] (setting [7]), 0.043 µM.

Take `CCOCC(=O)N[C@@H](Cc1ccc2c(c1)OCO2)[C@H](O)CN[C@H]1CC2(CCC2)Oc2ncc(CC(C)C)cc21` [compound 720]: the IC50 is 0.057 µM in series [1] (setting [8]) and 0.134 µM in series [2] (setting [9]).

For the compound `CC(=O)N[C@@H](Cc1cc(F)cc(F)c1)[C@H](O)CN[C@H]1CC(C)(C)N2CCOc3cc(CC(C)(C)C)cc1c32` [compound 725], the IC50 in series [1] (setting [8]) was 0.059 µM; in series [2] (setting [9]) it was 0.178 µM.

Take `CCc1cnc2c(c1)[C@@H](NC[C@@H](O)[C@H](Cc1cc(F)cc(-c3nccs3)c1)NC(=O)COC)CC1(CCC1)O2` [compound 728]: the IC50 in series [1] (setting [8]) was 0.03 µM; in series [2] (setting [9]), 0.108 µM.

Consider `COCC(=O)N[C@@H](Cc1cc(F)cc(-c2nccn2C)c1)[C@H](O)CN[C@H]1CC2(CCC2)Oc2ncc(CC(C)(C)C)cc21` [compound 740, N-((1S,2R)-3-(((4′S)-6′-(2,2-dimethylpropyl)-3′,4′-dihydrospiro[cyclobutane-1,2′-pyrano[2,3-b]pyridin]-4′-yl)amino)-1-(3-fluoro-5-(1-methyl-1H-imidazol-2-yl)benzyl)-2-hydroxypropyl)-2-methoxyacetamide], for which the results for the IC50 in series [1] (setting [8]) and in series [2] (setting [9]) were 0.051 µM and 0.006 µM, respectively.

Regarding `CC#Cc1cccc(C[C@H](NC(=O)[C@@H](C)OC)[C@H](O)CN[C@H]2CC3(CCC3)Oc3ncc(CC(C)C)cc32)c1` [compound 803], the IC50 in series [1] (setting [10]) is 0.022 µM; in series [2] (setting [11]), 0.132 µM.

Take `CO[C@H](C)C(=O)N[C@@H](Cc1cc(F)cc(Cl)c1)[C@H](O)CN[C@H]1CC2(CCC2)Oc2ccc(CC(C)C)cc21` [compound 805]: the IC50 in series [1] (setting [10]) turned out to be 0.003 µM; in series [2] (setting [11]), 0.07 µM.

As to `COCC(=O)N[C@@H](Cc1cccc(-c2nccs2)c1)[C@H](O)CN[C@H]1CC2(CCC2)Oc2cnc(CC(C)(C)C)cc21` [compound 807], the IC50 in series [1] (setting [10]) came to 0.019 µM; in series [2] (setting [11]), 0.054 µM.

Regarding `CCC(=O)N[C@@H](Cc1ccc2c(c1)OCO2)[C@H](O)CN[C@H]1CC2(CCC2)Oc2ncc(CC(C)(C)C)cc21` [compound 828], the IC50 in series [1] (setting [10]) was determined as 0.012 µM; in series [2] (setting [11]), 0.014 µM.

As for `C=Cc1cccc(C[C@H](NC(=O)COC)[C@H](O)CN[C@H]2CC3(CCC3)Oc3ncc(CC(C)C)cc32)c1` [compound 832], the IC50 in series [1] (setting [10]) amounted to 0.007 µM; in series [2] (setting [11]), 0.038 µM.

`C#CCCC(=O)N[C@@H](Cc1ccc2c(c1)OCO2)[C@H](O)CN[C@H]1CC2(CCC2)Oc2ncc(CC(C)(C)C)cc21` [compound 843]: the IC50 in series [1] (setting [10]) is 0.044 µM; in series [2] (setting [11]) it was 0.065 µM.

Turning to `C#CCCC(=O)N[C@@H](Cc1cccc(F)c1)[C@H](O)CN[C@H]1CC2(CCC2)Oc2ncc(CC(C)(C)C)cc21` [compound 859], the IC50 in series [1] (setting [10]) turned out to be 0.004 µM; in series [2] (setting [12]), 0.027 µM.

Regarding `COCC(=O)N[C@@H](Cc1cccc(C(N)=O)c1)[C@H](O)CN[C@H]1CC2(CCC2)Oc2ncc(CC(C)(C)F)cc21` [compound 863], the IC50 in series [1] (setting [10]) was 0.013 µM; in series [2] (setting [12]), 0.033 µM.

For the compound `COC(OC)C(=O)N[C@@H](Cc1cccc(C(N)=O)c1)[C@H](O)CN[C@H]1CC2(CCC2)Oc2ncc(CC(C)(C)F)cc21` [compound 864], the IC50 in series [1] (setting [10]) was found to be 0.04 µM; in series [2] (setting [12]), 0.117 µM.

On to `CC(C)C(=O)N[C@@H](Cc1ccc2c(c1)OCO2)[C@H](O)CN[C@H]1CC2(CCC2)Oc2ncc(CC(C)(C)C)cc21` [compound 881], for which the IC50 in series [1] (setting [10]) came to 0.144 µM; in series [2] (setting [12]), 0.813 µM.

Regarding `CCO[C@H](C)C(=O)N[C@@H](Cc1ccc2c(c1)OCO2)[C@H](O)CN[C@H]1CC2(CCC2)Oc2ncc(CC(C)(C)C)cc21` [compound 887], the IC50 in series [1] (setting [10]) was 0.102 µM; in series [2] (setting [12]), 0.052 µM. In series [3] (rat liver microsomal data), this compound displayed an RLM of 136 µL/min/mg. This compound registered an HLM in series [4] (human liver microsomal data) of 37 µL/min/mg.

As for `C#Cc1cc(C[C@H](NC(=O)COC)[C@H](O)CN[C@H]2CC3(CCC3)Oc3ncc(CC(C)(C)C)cc32)cc(-c2nccs2)c1` [compound 889], the IC50 was found to be 0.653 µM in series [1] (setting [10]) and 0.989 µM in series [2] (setting [12]).

On to `CC#Cc1cccc(C[C@H](NC(=O)[C@@H](C)OC)[C@H](O)CN[C@H]2CC3(CCC3)Oc3ncc(CC(C)(C)C)cc32)c1` [compound 895], for which the IC50 in series [1] (setting [10]) stood at 0.016 µM; in series [2] (setting [12]), 0.017 µM.

As to `C#Cc1cccc(C[C@H](NC(=O)[C@@H]2CCCO2)[C@H](O)CN[C@H]2CC3(CCC3)Oc3ncc(CC(C)(C)C)cc32)c1` [compound 897], the results for the IC50 (in series [1] (setting [10]); in series [2] (setting [12]); against CYP2D6) were 0.005 µM, 0.007 µM and 3600 nM, respectively. In series [3] (rat liver microsomal data), the RLM was 55 µL/min/mg.

Take “(2R)—N-((1S,2R)-1-((4-fluorophenyl)methyl)-2-hydroxy-3-(((4′S)-6′-(3,3,3-trifluoropropyl)-3′,4′-dihydrospiro[cyclobutane-1,2′-pyrano[2,3-b]pyridin]-4′-yl)amino)propyl)-2-(methyloxy)propanamide ′(2S)—N-((1S,2R)-1-((4-fluorophenyl)methyl)-2-hydroxy-3-(((4′S)-6′-(3,3,3-trifluoropropyl)-3′,4′-dihydrospiro[cyclobutane-1,2′-pyrano[2,3-b]pyridin]-4′-yl)amino)propyl)-2-(methyloxy)propanamide [compound 192]”: the IC50 in series [1] (setting [13]) was 1.02 µM; in series [2] (setting [14]), 2.03 µM.

As for “N-((1S,2R)-1-(1,3-benzodioxol-5-ylmethyl)-3-(((1r,3R,4′S)-6′-(2,2-dimethylpropyl)-3-hydroxy-3′,4′-dihydrospiro[cyclobutane-1,2′-pyrano[2,3-c]pyridin]-4′-yl)amino)-2-hydroxypropyl)acetamide N-((1S,2R)-1-(1,3-benzodioxol-5-ylmethyl)-3-(((1s,3S,4′S)-6′-(2,2-dimethylpropyl)-3-hydroxy-3′,4′-dihydrospiro[cyclobutane-1,2′-pyrano[2,3-c]pyridin]-4′-yl)amino)-2-hydroxypropyl)acetamide [compound 264]”, the IC50 in series [1] (setting [13]) was 0.0422 µM; in series [2] (setting [14]), 0.0688 µM.

For the compound “N-((1S,2R)-1-(4-thiazolylmethyl)-3-(((5′S)-3′-(2,2-dimethylpropyl)-5′,8′-dihydro-6′H-spiro[cyclobutane-1,7′-quinolin]-5′-yl)amino)-2-hydroxypropyl)-2-(methyloxy)acetamide [compound 176]”, the IC50 in series [1] (setting [15]) stood at 0.0105 µM; in series [2] (setting [14]) it was 0.017 µM.

Turning to “N-((1S,2R)-1-((3-cyanophenyl)methyl)-3-(((4′S)-6′-(2,2-dimethylpropyl)-3′,4′-dihydrospiro[cyclobutane-1,2′-pyrano[2,3-b]pyridin]-4′-yl)amino)-2-hydroxypropyl)-1-cyclobutyl-4,4-dimethyl-5-oxo-3-pyrrolidinecarboxamide [compound 60]”, the figures for the IC50 in series [1] (setting [15]) and in series [2] (setting [14]) were 0.0211 µM and 0.0631 µM, respectively.
